Here are results for one compound from patent US10710978B2, “STK4 inhibitors for treatment of hematologic malignancies” (Dana-Farber Cancer Institute, Inc., priority 2015, dated 2020).

By pIC50 is commonly meant the negative decadic logarithm of the IC50, by convention in mol/L. Higher therefore signals a small IC50. A word on the inhibition: it is the change of the read-out against control, counted positive when it falls.

One assay has as its target STK3 (MST2) (Homo sapiens (Human), UniProt Q13188). Put plainly: Z-lyte biochemical IC50 assay (Invitrogen). Conditions: ATP concentration matched the Km.
The test system of a further assay is CK1d, CK1e. The assay is described as follows: KiNativ assay. In kind it is binding. The settings on record: H929 live cell. In short, it runs like this: (§1)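 In duplicate, compounds at 10 μM were screened against kinases in H929 live cells using KiNativ, with MS as the detection method for IC50.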
A further assay concerns the target DNAPK (Homo sapiens (Human), UniProt P78527). Put plainly: KiNativ assay. The settings on record: H929 live cell. It counts as binding. How it is done: Biochemical IC50s of the compounds of the present disclosure against various kinases were measured in a KiNativ assay. Compounds were screened in duplicate at 10 μM in H929 live cell. IC50 was measured via Mass spectroscopy (MS).

The target of a further assay is GPRK5 (Homo sapiens (Human), UniProt P34947). The assay is described as follows: KiNativ assay. The settings on record: H929 live cell. In kind it is binding. In short, it runs like this: as §1
For another assay, the target named is ARAF (Homo sapiens (Human), UniProt P10398). Put plainly: KiNativ assay. The settings on record: H929 live cell. In kind it is binding. The gist of the method:
as §1

The next assay deals with MAP2K2 (Homo sapiens (Human), UniProt P36507). Put plainly: KiNativ assay. In kind it is binding. The settings on record: H929 live cell. The gist of the method:
as §1

The next assay concerns the target QSK (Homo sapiens (Human), UniProt Q9Y2K2). The assay is described as follows: KiNativ assay. It counts as binding. The settings on record: H929 live cell. In short, it runs like this: as §1
The next assay concerns the target CDK9 (Homo sapiens (Human), UniProt P50750). The assay is described as follows: KiNativ assay. Conditions: H929 live cell. In kind it is binding. The gist of the method:
as §1

The target of another assay is SGK2 (Homo sapiens (Human), UniProt Q9HBY8). Put plainly: KiNativ assay. In kind it is binding. Conditions: H929 live cell. The gist of the method: as §1

pIC50: −log10 of the molar value. Where two headings read alike, the source gives them in different places.

DNAPK, sequence (P78527 whole entry): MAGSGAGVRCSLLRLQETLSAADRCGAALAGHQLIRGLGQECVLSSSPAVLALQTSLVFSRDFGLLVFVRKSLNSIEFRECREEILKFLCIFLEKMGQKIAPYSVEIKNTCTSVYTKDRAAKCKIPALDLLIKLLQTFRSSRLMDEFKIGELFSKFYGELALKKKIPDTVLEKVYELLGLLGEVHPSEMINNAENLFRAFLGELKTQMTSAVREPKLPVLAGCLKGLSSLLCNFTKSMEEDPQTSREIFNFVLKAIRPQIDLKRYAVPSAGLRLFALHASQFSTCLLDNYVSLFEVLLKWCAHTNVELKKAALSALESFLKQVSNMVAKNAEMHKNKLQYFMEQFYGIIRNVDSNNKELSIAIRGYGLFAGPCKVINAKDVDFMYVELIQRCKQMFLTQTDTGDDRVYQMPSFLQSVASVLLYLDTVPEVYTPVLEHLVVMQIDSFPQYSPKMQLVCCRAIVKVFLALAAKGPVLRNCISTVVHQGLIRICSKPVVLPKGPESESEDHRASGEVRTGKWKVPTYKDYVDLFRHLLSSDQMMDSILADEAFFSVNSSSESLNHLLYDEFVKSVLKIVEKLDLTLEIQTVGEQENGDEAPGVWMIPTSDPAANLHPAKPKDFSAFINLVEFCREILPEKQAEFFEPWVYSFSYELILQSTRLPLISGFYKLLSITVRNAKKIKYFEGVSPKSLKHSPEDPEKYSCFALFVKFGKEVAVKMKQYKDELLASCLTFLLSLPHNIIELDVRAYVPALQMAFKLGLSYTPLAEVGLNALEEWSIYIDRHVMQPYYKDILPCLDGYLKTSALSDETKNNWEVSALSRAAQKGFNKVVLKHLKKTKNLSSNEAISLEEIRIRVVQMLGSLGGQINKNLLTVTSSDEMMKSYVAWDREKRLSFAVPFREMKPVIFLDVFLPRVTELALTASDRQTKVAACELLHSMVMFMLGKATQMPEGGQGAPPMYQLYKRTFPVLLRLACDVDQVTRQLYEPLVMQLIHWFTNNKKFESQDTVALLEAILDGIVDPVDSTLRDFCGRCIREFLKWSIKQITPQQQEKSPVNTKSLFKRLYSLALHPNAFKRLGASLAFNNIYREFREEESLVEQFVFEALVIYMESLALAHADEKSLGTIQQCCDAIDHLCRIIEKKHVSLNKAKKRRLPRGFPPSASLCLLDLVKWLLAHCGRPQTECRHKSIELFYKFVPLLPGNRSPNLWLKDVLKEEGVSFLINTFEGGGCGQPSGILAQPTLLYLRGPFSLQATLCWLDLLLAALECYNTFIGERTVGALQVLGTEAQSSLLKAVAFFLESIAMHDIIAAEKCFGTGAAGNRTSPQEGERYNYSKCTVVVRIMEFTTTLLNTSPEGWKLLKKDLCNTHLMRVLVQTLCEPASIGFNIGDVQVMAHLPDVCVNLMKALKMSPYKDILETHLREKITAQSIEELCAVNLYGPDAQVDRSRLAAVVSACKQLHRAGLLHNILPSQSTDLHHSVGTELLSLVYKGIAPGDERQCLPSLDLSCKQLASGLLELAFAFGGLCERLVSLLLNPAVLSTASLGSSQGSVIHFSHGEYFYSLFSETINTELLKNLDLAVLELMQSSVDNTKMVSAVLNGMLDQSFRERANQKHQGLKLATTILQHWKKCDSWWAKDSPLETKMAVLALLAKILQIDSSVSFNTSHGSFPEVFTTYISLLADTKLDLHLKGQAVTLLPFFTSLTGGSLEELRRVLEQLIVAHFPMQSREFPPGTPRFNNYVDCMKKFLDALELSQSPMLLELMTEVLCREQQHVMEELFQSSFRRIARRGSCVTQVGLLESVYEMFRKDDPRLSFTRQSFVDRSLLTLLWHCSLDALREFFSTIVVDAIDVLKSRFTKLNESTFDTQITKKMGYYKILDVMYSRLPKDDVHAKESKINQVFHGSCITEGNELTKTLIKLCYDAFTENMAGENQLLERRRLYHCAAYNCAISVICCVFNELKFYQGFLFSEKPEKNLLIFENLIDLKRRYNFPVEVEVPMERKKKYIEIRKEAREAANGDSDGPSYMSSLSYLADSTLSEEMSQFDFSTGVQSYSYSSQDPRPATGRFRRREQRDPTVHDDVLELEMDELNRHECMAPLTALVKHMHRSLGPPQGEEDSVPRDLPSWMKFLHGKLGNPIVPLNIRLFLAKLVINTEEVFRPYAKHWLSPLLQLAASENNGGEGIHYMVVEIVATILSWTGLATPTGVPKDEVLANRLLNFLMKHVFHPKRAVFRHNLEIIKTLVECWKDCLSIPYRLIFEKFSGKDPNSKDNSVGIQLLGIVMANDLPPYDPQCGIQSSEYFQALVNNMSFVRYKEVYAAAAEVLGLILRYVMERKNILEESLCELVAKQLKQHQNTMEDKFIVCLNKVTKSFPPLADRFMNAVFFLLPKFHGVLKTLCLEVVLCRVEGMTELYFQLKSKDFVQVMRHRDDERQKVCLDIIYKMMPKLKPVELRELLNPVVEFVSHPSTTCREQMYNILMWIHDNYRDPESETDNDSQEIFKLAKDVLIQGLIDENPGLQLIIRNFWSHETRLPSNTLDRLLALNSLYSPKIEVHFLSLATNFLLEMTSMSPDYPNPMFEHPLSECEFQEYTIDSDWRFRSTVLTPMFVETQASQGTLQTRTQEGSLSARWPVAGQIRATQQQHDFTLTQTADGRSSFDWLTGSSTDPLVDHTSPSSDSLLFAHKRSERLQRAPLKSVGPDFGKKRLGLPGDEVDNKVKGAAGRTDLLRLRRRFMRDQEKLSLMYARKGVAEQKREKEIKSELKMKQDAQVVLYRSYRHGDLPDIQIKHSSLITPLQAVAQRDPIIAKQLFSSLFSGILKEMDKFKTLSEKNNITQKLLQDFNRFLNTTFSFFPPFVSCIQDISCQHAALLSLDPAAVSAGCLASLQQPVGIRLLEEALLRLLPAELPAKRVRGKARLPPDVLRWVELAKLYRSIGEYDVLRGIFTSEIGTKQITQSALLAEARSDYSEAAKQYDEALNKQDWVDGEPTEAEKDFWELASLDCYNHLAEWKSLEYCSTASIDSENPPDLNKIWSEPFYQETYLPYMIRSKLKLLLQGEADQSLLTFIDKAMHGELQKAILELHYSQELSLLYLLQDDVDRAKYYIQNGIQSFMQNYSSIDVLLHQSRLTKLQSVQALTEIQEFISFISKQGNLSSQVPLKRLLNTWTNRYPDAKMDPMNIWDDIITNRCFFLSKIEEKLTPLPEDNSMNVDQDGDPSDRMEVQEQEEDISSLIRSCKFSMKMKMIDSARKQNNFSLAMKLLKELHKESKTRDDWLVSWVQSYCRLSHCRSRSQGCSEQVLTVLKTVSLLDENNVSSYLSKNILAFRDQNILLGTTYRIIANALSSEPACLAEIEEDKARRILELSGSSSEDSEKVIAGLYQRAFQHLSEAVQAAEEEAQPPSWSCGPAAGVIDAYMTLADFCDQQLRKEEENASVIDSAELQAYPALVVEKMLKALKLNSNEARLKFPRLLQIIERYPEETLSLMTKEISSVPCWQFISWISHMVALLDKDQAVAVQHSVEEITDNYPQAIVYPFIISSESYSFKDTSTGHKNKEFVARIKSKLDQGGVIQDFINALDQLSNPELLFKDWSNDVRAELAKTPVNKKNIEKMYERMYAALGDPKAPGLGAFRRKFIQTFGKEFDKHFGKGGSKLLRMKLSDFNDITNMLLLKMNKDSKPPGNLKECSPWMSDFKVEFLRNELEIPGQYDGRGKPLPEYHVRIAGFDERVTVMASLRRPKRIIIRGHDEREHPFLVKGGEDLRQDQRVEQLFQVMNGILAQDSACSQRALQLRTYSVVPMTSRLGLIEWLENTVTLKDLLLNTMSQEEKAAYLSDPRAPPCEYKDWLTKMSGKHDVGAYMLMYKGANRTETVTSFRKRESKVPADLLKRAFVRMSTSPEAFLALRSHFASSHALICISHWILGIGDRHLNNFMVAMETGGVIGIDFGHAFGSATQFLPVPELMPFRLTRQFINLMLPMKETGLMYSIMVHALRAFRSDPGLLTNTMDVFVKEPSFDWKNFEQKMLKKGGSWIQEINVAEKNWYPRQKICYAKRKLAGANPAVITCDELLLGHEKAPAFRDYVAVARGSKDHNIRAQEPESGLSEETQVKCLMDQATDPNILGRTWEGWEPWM
ARAF, sequence (P10398 whole entry): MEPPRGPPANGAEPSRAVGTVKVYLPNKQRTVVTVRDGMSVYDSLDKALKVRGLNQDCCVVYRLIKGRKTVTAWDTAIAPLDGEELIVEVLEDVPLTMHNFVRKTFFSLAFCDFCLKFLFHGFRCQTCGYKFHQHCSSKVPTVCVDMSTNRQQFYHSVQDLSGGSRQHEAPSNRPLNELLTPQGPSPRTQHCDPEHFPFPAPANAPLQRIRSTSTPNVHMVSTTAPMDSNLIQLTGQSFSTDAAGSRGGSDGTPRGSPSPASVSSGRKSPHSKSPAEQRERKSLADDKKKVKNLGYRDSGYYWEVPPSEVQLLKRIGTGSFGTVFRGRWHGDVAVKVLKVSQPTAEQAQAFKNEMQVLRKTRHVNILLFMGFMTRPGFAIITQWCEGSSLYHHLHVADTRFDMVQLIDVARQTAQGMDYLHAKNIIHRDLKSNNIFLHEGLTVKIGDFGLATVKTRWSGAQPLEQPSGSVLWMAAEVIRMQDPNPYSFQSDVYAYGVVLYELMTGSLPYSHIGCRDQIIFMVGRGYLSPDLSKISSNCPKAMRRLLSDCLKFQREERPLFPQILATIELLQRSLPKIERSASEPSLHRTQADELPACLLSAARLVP
MAP2K2, sequence (P36507 whole entry): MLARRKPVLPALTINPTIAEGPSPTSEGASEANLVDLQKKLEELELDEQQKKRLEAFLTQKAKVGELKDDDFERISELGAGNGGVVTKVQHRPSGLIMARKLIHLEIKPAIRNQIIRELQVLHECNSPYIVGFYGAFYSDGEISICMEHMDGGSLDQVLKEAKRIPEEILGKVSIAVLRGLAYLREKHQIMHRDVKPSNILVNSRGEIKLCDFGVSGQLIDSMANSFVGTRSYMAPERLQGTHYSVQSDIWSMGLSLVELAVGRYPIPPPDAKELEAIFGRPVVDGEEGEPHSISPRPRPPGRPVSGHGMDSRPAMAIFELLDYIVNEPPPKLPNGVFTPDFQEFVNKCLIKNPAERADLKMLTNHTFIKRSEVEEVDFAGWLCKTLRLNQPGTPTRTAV

With `Nc1ncc(-c2cccc3ncsc23)cc1-c1ccc2c(c1)CCNC2=O` [Compound I-13, 6-(2-amino-5-(benzo[d]thiazol-7-yl)pyridin-3-yl)-3,4-dihydroisoquinolin-1(2H)-one], on STK3 (MST2), the pIC50 was 6.70 to 7.40. The “inhibition (10 μM)” value in the assay with CK1d, CK1e was found to be 58.9%; at DNAPK it was 59.4%. The “% inhibition (range)” value at DNAPK (10 μM) is reported as 50-75%. The inhibition at 10 µM is 35 to 50% on DNAPK (read-out: % inhibition (range)); 44.7% at DNAPK (read-out: inhibition (10 μM)); 0% at GPRK5 (read-out: % inhibition (range)); -12% at GPRK5 (read-out: inhibition (10 μM)); 0% on ARAF (read-out: % inhibition (range)); 16.7% at ARAF (read-out: inhibition (10 μM)). Further, the inhibition at 10 µM on MAP2K2 (read-out: % inhibition (range)) was 0%; on MAP2K2 (read-out: inhibition (10 μM)), -36.7%; on QSK (read-out: % inhibition (range)) it was 35 to 50%; on QSK (read-out: inhibition (10 μM)) it was 47.8%; at CDK9 (read-out: % inhibition (range)), 35 to 50%; at CDK9 (read-out: inhibition (10 μM)) it was 41.1%. Besides, the inhibition at 10 µM on SGK2 (read-out: % inhibition (range)) is 0%; on SGK2 (read-out: inhibition (10 μM)) it was 22.1%.
